# Laboratory results reported in patent US20210251234A1 (priority 2015, published 2021).
# Read-outs that look alike come from different tables or passages of the source.
# Legend:
# [1] = tested on: Zebra chip (Candidatus Liberibacter solanacearum); format: in vivo; settings: fried slices, under heading Flake Burning Severity
# [2] = tested on: Zebra chip/purple top (Candidatus Liberibacter solanacearum / Candidatus Phytoplasma americanum); format: in vivo; settings: relative to untreated treatment 1
# potato variety Caesar [3] = experiment: Potato tubercle production at harvest; format: in vivo, potato (Solanum tuberosum); settings: for Total production in Kilograms per parcel, Average: all categories, harvest; for Production in Kilograms per treatment categories: Combined: combined quality category; for Production in Kilograms per treatment categories: First: first quality category; for Production in Kilograms per treatment categories: Third: third quality category
# Description: (§1) The seeding was made on June 10. The potato variety used was Caesar, third-category tubercles were used. A soil application was made to all the treatments when fluoxastrobin fungicides were applied; 2-litters dose or commercial product per hectare, and penfuflen 0.650 litters dose per hectare; in order to prevent Fusarium spp. and/or Rhizoctoniasolani fungus attack. The experimental design used was random blocks with four repetitions; the experimental parcel was formed by four furrows at a distance between furrows of 0.92 m, and 10 meters length. The useful parcel consisted in two central furrows of each experimental parcel. Distance between plants was 0.25 m.
# (§2) The applied treatments consisted in an application on the bottom of the furrow when the seeding was taking place, and eleven foliar applications.
# Production: In harvest, each treatment production was analyzed, for which two lineal meters were harvested of each experimental parcel central furrows, registering the potato tubercles production for each of the four categories (first, second, third and combined).
# [4] = tested on: Zebra chip/purple top (Candidatus Liberibacter solanacearum); format: in vivo; settings: cross cut tubercles, relative to untreated
# Bactericera cockerelli = Bactericera cockerelli population dynamic (adults, nymphs, eggs) in potato field trial; format: in vivo; settings: for average of registered adults: B. cockerelli adults, four-repetitions average; for B. Cokerelli eggs population average / Average of registered B.cokerelli nymphs: average of four repetitions
# Description: as §1, §2
# Bactericera cockerelli, Population Dynamic: Studies on adult psilides, nymphs and eggs were population dynamic were made. For which purpose a count was made before the first foliar application and subsequently after each treatment application. To know the number of adults 20 net traps (with entomologic net) per experimental parcel, in each evaluation. To determine the number of eggs and nymphs, 50 pinnas were evaluated per parcel in each evaluation.
# potato variety Caesar [5] = experiment: Cultivation emergence (germination) in potato field trial; format: in vivo, potato (Solanum tuberosum); settings: 22 days after seeding, plants emerged in central furrows
# Description: as §1, §2
# Emergence: Cultivation emergence was determined; for which the number of plants that emerged in each parcel central furrows was counted at 100% emergence. The data were collected on Jul. 2, 2014 (22 days after seeding).
smiles,measurement,setting,value
"N#Cc1ccccc1NC(=O)c1snc(Cl)c1Cl [Treatment 3, Isotianil]",Flake burning Incidence control percentage,[1]; listed as 3,31.3%
same,Zebra chip/purple top incidence control percentage,[2]; listed as 3,14.35%
same,"Total production in Kilograms per parcel, Average",potato variety Caesar [3]; listed as 3,17.975 Kilograms per parcel
same,Production in Kilograms per treatment categories: Combined,potato variety Caesar [3]; listed as 3,39.8 Kilograms
same,Production in Kilograms per treatment categories: First,potato variety Caesar [3]; listed as 3,0 Kilograms
same,Production in Kilograms per treatment categories: Third,potato variety Caesar [3]; listed as 3,24.3 Kilograms
same,tubercle staining Incidence Control Percentage,[4]; listed as 3,35.01%
same,tubercle staining Severity Control Percentage,[4]; listed as 3,43.13%
same,average of registered adults,"Bactericera cockerelli; 02-Sep., listed as T3",1.75
same,average of registered adults,"Bactericera cockerelli; 5-Aug., 20 net traps per parcel, listed as T3",1
same,average of registered adults,"Bactericera cockerelli; 08-sep., listed as T3",0.5
same,average of registered adults,"Bactericera cockerelli; 12-Aug., listed as T3",1.25
same,average of registered adults,"Bactericera cockerelli; 18-Aug., listed as T3",3.75
same,average of registered adults,"Bactericera cockerelli; 19-Sep., listed as T3",4.75
same,B. Cokerelli eggs population average,"Bactericera cockerelli; 08-sep., listed as T3",1.25
same,B. Cokerelli eggs population average,"Bactericera cockerelli; 12-August, listed as T3",1.5
same,Average of registered B.cokerelli nymphs,"Bactericera cockerelli; 02-Sep., listed as T3",4.5
same,Average of registered B.cokerelli nymphs,"Bactericera cockerelli; 08-sep., listed as T3",3
same,Average of registered B.cokerelli nymphs,"Bactericera cockerelli; 12-Aug., listed as T3",0
same,Average of registered B.cokerelli nymphs,"Bactericera cockerelli; 18-Aug., listed as T3",0
same,Emergence Percentage,potato variety Caesar [5]; listed as 3,61.2%
"N#Cc1ccccc1NC(=O)c1snc(Cl)c1Cl [Treatment 4, Isotianil]",Flake burning Incidence control percentage,[1]; listed as 4,54%
same,Zebra chip/purple top incidence control percentage,[2]; listed as 4,62.65%
same,"Total production in Kilograms per parcel, Average",potato variety Caesar [3]; listed as 4,21.3 Kilograms per parcel
same,Production in Kilograms per treatment categories: Combined,potato variety Caesar [3]; listed as 4,37.7 Kilograms
same,Production in Kilograms per treatment categories: First,potato variety Caesar [3]; listed as 4,4 Kilograms
same,Production in Kilograms per treatment categories: Second,potato variety Caesar [3]; second quality category,7.8 Kilograms
same,Production in Kilograms per treatment categories: Third,potato variety Caesar [3]; listed as 4,35.7 Kilograms
same,tubercle staining Incidence Control Percentage,[4]; listed as 4,63.35%
same,tubercle staining Severity Control Percentage,[4]; listed as 4,74.50%
same,average of registered adults,"Bactericera cockerelli; 02-Sep., listed as T4",0.25
same,average of registered adults,"Bactericera cockerelli; 5-Aug., 20 net traps per parcel, listed as T4",0.75
same,average of registered adults,"Bactericera cockerelli; 08-sep., listed as T4",0
same,average of registered adults,"Bactericera cockerelli; 12-Aug., listed as T4",2
same,average of registered adults,"Bactericera cockerelli; 18-Aug., listed as T4",1
same,average of registered adults,"Bactericera cockerelli; 19-Sep., listed as T4",2.75
same,B. Cokerelli eggs population average,Bactericera cockerelli; 02-Sep.,0
same,B. Cokerelli eggs population average,"Bactericera cockerelli; 5-August, 50 pinnas per parcel",0
same,B. Cokerelli eggs population average,"Bactericera cockerelli; 08-sep., listed as T4",0.75
same,B. Cokerelli eggs population average,"Bactericera cockerelli; 12-August, listed as T4",4.5
same,B. Cokerelli eggs population average,Bactericera cockerelli; 18-August,0
same,B. Cokerelli eggs population average,Bactericera cockerelli; 19-Sep.,0
same,Average of registered B.cokerelli nymphs,"Bactericera cockerelli; 02-Sep., listed as T4",13.75
same,Average of registered B.cokerelli nymphs,"Bactericera cockerelli; 5-Aug., 50 pinnas per parcel",0
same,Average of registered B.cokerelli nymphs,"Bactericera cockerelli; 08-sep., listed as T4",0
same,Average of registered B.cokerelli nymphs,"Bactericera cockerelli; 12-Aug., listed as T4",2.25
same,Average of registered B.cokerelli nymphs,"Bactericera cockerelli; 18-Aug., listed as T4",0.25
same,Average of registered B.cokerelli nymphs,Bactericera cockerelli; 19-Sep.,0
same,Emergence Percentage,potato variety Caesar [5]; listed as 4,71.8%
